Laboratory results: ChEMBL document CHEMBL5665440, “ASAP - In vitro liver microsomal stability” (2024)
“And” between values parts separate entries of the source, which are not always exact repeats. Equal values may be shown once.

What was measured:
[1] = (§1) Human liver microsomal stability of compound in microsomal protein, PBS buffer pH 7.4, NADPH, glucose-6-phosphate and glucose-6-phosphate dehydrogenase media. Aliquotes were taken at 5 time points and after stopping the reaction, supernatants were analyzed using HPLC coupled with a tandem mass spectrometer. The elimination constant, half-life, and intrinsic clearance are determined as results using linear regression analysis.; format: ADME, microsomes, Microsome; details: for half-life / microsomal CLint: liver microsomes; for Remaining / Remaining (without cofactor) / CLint / T1/2: microsomes
[2] = as §1, with “Mouse” for “Human”; format: ADME, microsomes, Microsome; details: for half-life / microsomal CLint: liver microsomes
For Remaining (without cofactor) in this document: time not given here.
For Remaining in this document: time not given here.

| half-life [1] | microsomal CLint [1] | Remaining [1] | Remaining (without cofactor) [1] | half-life [2] | microsomal CLint [2] | Remaining ([2]; microsomes) | Remaining (without cofactor) ([2]; microsomes) | CLint [1] | T1/2 [1] | CLint ([2]; microsomes) | T1/2 ([2]; microsomes) | Compound |
| --- | --- | --- | --- | --- | --- | --- | --- | --- | --- | --- | --- | --- |
| > 2.89 h | < 10 µL/min/mg | 97.872% | 85.479% | 2.23 h | 12.5 µL/min/mg | 78.028% | 113.254% | – | – | – | – | Cn1c(=O)[nH]c2c(C(=O)Nc3ccc4c(c3)CNC4)cc(Br)cc21 |
| 1.97 h | 14.1 µL/min/mg | 78.018% | 74.757% | 2.19 h | 12.7 µL/min/mg | 75.758% | 108.523% | – | – | – | – | O=C(Nc1ccc2c(c1)CNC2)c1cccc2[nH]c(C(F)(F)F)cc12 |
| > 2.89 h | < 10 µL/min/mg | 105.314% | 104.393% | 0.516 h | 54 µL/min/mg | 41.728% | 98.046% | – | – | – | – | O=C(Nc1ccc2c(c1)CNC2)c1cc(Cl)cc2cn[nH]c12 |
| > 2.89 h | < 10 µL/min/mg | 96.618% | 96.957% | > 2.89 h | < 10 µL/min/mg | 89.02% | 93.513% | – | – | – | – | CC(C)n1cc2c(C(=O)Nc3ccc4c(c3)CNC4)cc(Cl)cc2n1 |
| > 2.89 h | < 10 µL/min/mg | 86.703% | 98.509% | 0.154 h | 180 µL/min/mg | 5.066% | 103.462% | – | – | – | – | O=C(Nc1ccc2c(c1)CNC2)c1cc(F)cc2[nH]ncc12 |
| > 2.89 h | < 10 µL/min/mg | 90.707% | 85.739% | > 2.89 h | < 10 µL/min/mg | 102.559% | 103.618% | – | – | – | – | O=C1Cc2c(cccc2C(=O)Nc2ccc3c(c2)CNC3)N1 |
| > 2.89 h | < 10 µL/min/mg | 93.064% | 105.277% | 2.08 h | 13.4 µL/min/mg | 78.077% | 96.092% | – | – | – | – | O=C(Nc1ccc2c(c1)CNC2)c1cc(Cl)cc2c1cnn2C1CCC1 |
| 2.44 h | 11.4 µL/min/mg | 83.663% | 98.81% | 0.093 h | 299 µL/min/mg | 0.737% | 95.151% | – | – | – | – | O=C(Nc1cc2c(cc1Br)CNC2)c1cc(F)cc2[nH]ncc12 |
| > 2.89 h | < 10 µL/min/mg | 100.772% | 105.44% | 1.53 h | 18.2 µL/min/mg | 76.341% | 103.175% | – | – | – | – | Cn1cc2c(C(=O)Nc3ccc4c(c3)CNC4)cc(F)cc2n1 |
| 2.18 h | 12.8 µL/min/mg | 80.427% | 94.891% | 0.636 h | 43.8 µL/min/mg | 49.173% | 86.086% | – | – | – | – | O=C(Nc1ccc2c(c1)CNC2)c1cc(Br)cc2[nH]c(-c3ccccc3)nc12 |
| 2.05 h | 13.6 µL/min/mg | 77.163% | 100.794% | 0.192 h | 145 µL/min/mg | 10.289% | 104.117% | – | – | – | – | O=C(Nc1cc(Br)c2c(c1)CNC2)c1cc(F)cc2[nH]ncc12 |

Second part, the compound before the results:

| Compound | half-life [1] | microsomal CLint [1] | Remaining [1] | Remaining (without cofactor) [1] | half-life [2] | microsomal CLint [2] | Remaining ([2]; microsomes) | Remaining (without cofactor) ([2]; microsomes) | CLint [1] | T1/2 [1] | CLint ([2]; microsomes) | T1/2 ([2]; microsomes) |
| --- | --- | --- | --- | --- | --- | --- | --- | --- | --- | --- | --- | --- |
| O=C(Nc1cc2c(c(C3=CCS(=O)(=O)CC3)c1)CNC2)c1cc(F)cc2[nH]ncc12 | > 2.89 h | < 10 µL/min/mg | 98.934% | 96.094% | 0.287 h | 96.9 µL/min/mg | 20.909% | 113.863% | – | – | – | – |
| CC(C)NC(=O)[C@H](Nc1ccc2c(c1)CNC2)c1cc(Cl)cc2[nH]c(-c3ccccc3)nc12 | – | – | 67.537% and 102.526% | 101.395% and 117.42% | 2.52 h | 11 µL/min/mg | 84% | 98.417% | 23.218 µL/min/mg and < 10 µL/min/mg | 1.199 h and > 2.888 h | – | – |
| CCCC[C@@H](NC(=O)OC(C)(C)C)C(=O)N[C@@H](C(=O)NCc1ccc(CN)cc1)c1ccc(OCc2ccccc2)cc1 | 0.497 h | 56 µL/min/mg | 40.588% | 99.499% | 3.11 h | 7.44 µL/min/mg | 87.681% | 94.521% | – | – | – | – |
| CSc1cc2c(cc1NC(=O)c1cc(F)cc3[nH]ncc13)CNC2 | > 2.89 h | < 10 µL/min/mg | 88.673% | 103.344% | 0.212 h | 131 µL/min/mg | 11.381% | 93.133% | – | – | – | – |
| N#CCCNC(=O)[C@H](Nc1ccc2c(c1)CNC2)c1cc(Cl)cc(C2CC2)c1 | > 2.89 h | < 10 µL/min/mg | 90.394% | 113.364% | > 2.89 h | < 10 µL/min/mg | 93.147% | 101.58% | – | – | – | – |
| CN(c1ccc2c(c1)CNC2)[C@H](C(=O)NCC(F)F)c1cc(Cl)cc(C2CC2)c1 | 1.63 h | 17.1 µL/min/mg | 74.869% | 95.997% | 2.63 h | 10.6 µL/min/mg | 80.041% | 110.954% | – | – | – | – |
| O=C(NCC(F)F)[C@H](Nc1cc2c(cc1Br)CNC2)c1cc(Cl)cc(C2CC2)c1 | 1.08 h | 25.9 µL/min/mg | 67.209% | 94.723% | 1.21 h | 22.9 µL/min/mg | 69.524% | 97.036% | – | – | – | – |
| N#Cc1cc2c(cc1NC(=O)c1cc(F)cc3[nH]ncc13)CNC2 | > 2.89 h | < 10 µL/min/mg | 85.714% and 76.558% | 101.075% and 93.161% | 0.0957 h | 291 µL/min/mg | 0.854% and 0.916% | 97.455% and 90.578% | 16.74 µL/min/mg | 1.6629 h | 288.453 µL/min/mg | 5.79 min |
| COCCNC(=O)[C@H](Nc1ccc2c(c1)CNC2)c1cc(Cl)cc(C2CC2)c1 | 1.42 h | 19.7 µL/min/mg | 68.563% | 103.817% | 2.38 h | 11.7 µL/min/mg | 84.686% | 107.462% | – | – | – | – |
| O=C(NCC(F)F)[C@H](Nc1ccc2c(c1)CNC2)c1cc(Cl)cc2c1CCC2 | 1.99 h | 14 µL/min/mg | 80.194% | 105.323% | 0.882 h | 31.6 µL/min/mg | 60.623% | 103.851% | – | – | – | – |
| CCCCNC(=O)[C@H](Nc1ccc2c(c1)CNC2)c1cc(Cl)cc(C2CC2)c1 | 1.72 h | 16.2 µL/min/mg | 75.607% | 97.272% | 1.43 h | 19.5 µL/min/mg | 73.231% | 102.386% | – | – | – | – |
| CNC(=O)c1cc(Cl)c(F)cc1NS(=O)(=O)c1ccc(Oc2ccccc2Cl)cc1 | 0.39 h | 71.3 µL/min/mg | 32.8% | 112.27% | 0.506 h | 45.6 µL/min/mg | 39.045% | 100.041% | – | – | – | – |
| O=C(NCCCF)[C@H](Nc1ccc2c(c1)CNC2)c1cc(Cl)cc(C2CC2)c1 | 1.75 h | 15.9 µL/min/mg | 77.399% | 95.756% | 1.6 h | 17.4 µL/min/mg | 76.547% | 97.886% | – | – | – | – |
| CNC(=O)c1cc(Cl)ccc1NS(=O)(=O)c1ccc(Oc2ccccc2Cl)cc1 | 0.263 h | 106 µL/min/mg | 18% | 94% | 0.247 h | 94 µL/min/mg | 16% | 99% | – | – | – | – |
| CNC(=O)[C@H](Nc1ccc2c(c1)CNC2)c1cc(Cl)cc(C2CC2)c1 | > 2.89 h | < 10 µL/min/mg | 90.859% | 112.656% | > 2.89 h | < 10 µL/min/mg | 87.863% | 93.167% | – | – | – | – |
| COc1cc(-c2cc(NC(=O)c3cc(F)cc4[nH]ncc34)cc3c2CNC3)ccn1 | > 2.89 h | < 10 µL/min/mg | 90.289% | 101.002% | 0.107 h | 260 µL/min/mg | 1.475% | 106.757% | – | – | – | – |
| COCc1cc(Cl)cc([C@H](Nc2ccc3c(c2)CNC3)C(=O)NCC(F)F)c1 | > 2.89 h | < 10 µL/min/mg | 94.228% | 112.017% | > 2.89 h | < 10 µL/min/mg | 97.4% | 108.672% | – | – | – | – |
| NCc1cccc(CNC(=O)[C@@H](NC(=O)OCc2ccccc2)c2ccc(OCc3ccccc3)cc2)c1 | 7.17 h | 3.88 µL/min/mg | 94.901% | 89.996% | 8.46 h | 2.73 µL/min/mg | 103.125% | 96.808% | – | – | – | – |
